Measurements: patent US4524059A, “Fatty acid analogs” (The General Hospital Corporation, priority 1983, dated 1985)
Where two headings read alike, the source gives them in different places.

How the values were obtained:
[1] = Biodistribution in mice; type: in vivo
[2] = Sequential positron tomography imaging of the heart in a mongrel dog, 201Tl as control; type: in vivo
Experimental: Solutions of [^131 I]-BMPTA and, as a control, ^201 T1, are injected sequentially in a mongrel dog. After each injection, sequential images of the dog's heart are obtained using positron tomography.

[3] = Biodistribution and positron tomography imaging of the heart and liver in mongrel dogs; conditions: dog, images 3, 13 and 48 minutes after injection, [^11 C] BMHDA versus [^11 C] HDA
[4] = Tissue distribution study in CD Fischer rats (organ radioactivity, NaI well scintillation counter); type: in vivo; conditions: rat
Experimental: CD Fischer rats (175-225 g) are anesthetized with ether and 0.2 ml ([…]) of [^11 C] BMHDA is injected through the femoral vein. The rats are sacrificed by ether asphyxiation at 5, 15, 30, and 60 minutes after dosing. The appropriate organs are excised and radioactivity measured in a NaI (T1) well scintillation counter.

[5] = Imaging study of a canine heart one hour post-LAD ligation; type: in vivo; conditions: dog
From the text: In addition to its long retention time, [^11 C] […] An imaging study of a canine heart following [^11 C]

[6] = Myocardial kinetics by positron tomography in adult, fasted, human volunteers; type: in vivo; conditions: 1-5 mCi intravenously
Experimental: (§1) The myocardial kinetics of BMHDA are evaluated in adult, fasted, human volunteers by positron tomography. Following attenuation measurements, volunteers receive between 1-5 mCi [^11 C] BMHDA intravenously and serial images are recorded for 30 min. No changes in heart rate, blood pressure, ECG, or respiratory rate are observed.

[7] = Heart rate, blood pressure, ECG and respiratory rate in human volunteers receiving the tracer; type: in vivo; conditions: 1-5 mCi intravenously
Experimental: as §1

[8] = dog, in vivo
[9] = throughout the monitoring period

CC(CCCCCCCCCCCc1ccc([131I])cc1)CC(=O)O (stereo not drawn) [[^131 I]-BMPTA, Beta-methyl-omega-(p-[^131 I]iodophenyl) tetradecanoic acid]
time of peak uptake by the kidney [1]: 15 min
uptake in the heart ([1]; 5 minutes after injection): high levels of uptake
uptake in the liver ([1]; 5 minutes after injection): high levels of uptake
uptake by the kidney after the peak ([1]; 30 minutes after injection): declining slightly
maintenance of radioactivity in heart and liver ([1]; over the 30 minutes of the experiment): high levels of radioactivity generally being maintained
radioactivity in blood [1, 9]: lower throughout the monitoring period
radioactivity in skeletal muscle [1, 9]: lower throughout the monitoring period
radioactivity in the lungs [1, 9]: lower throughout the monitoring period
retention by the heart muscle compared to ^201 T1 [2]: longer retention
time after injection over which clear images of the heart are obtained [2]: as long as two hours after the injection
activity in the heart over the initial 60 minute period ([2]; 60 minutes): remains essentially the same

CCCCCCCCCCCCCCCCC(=O)O [[^11 C] HDA, [^11 C] heptadecanoic acid]
wash-out from / retention in the myocardium [3]: rapidly washes out of the tissue

CCCCCCCCCCCCCCC(C)C[11C](=O)O (stereo not drawn) [[^11 C] BMHDA, [1-^11 C] beta-methylheptadecanoic acid]
extraction by the heart muscle ([4]; i.v. (femoral vein), 5-60 min): selectively extracted by the heart muscle
retention of radioactivity in the heart ([4]; i.v. (femoral vein), 5-60 min): retained in the heart for up to one hour
liver activity ([4]; i.v., 5-60 min): increases during the course of the study
lung activity ([4]; i.v., compared with heart activity): at all times lower than heart activity
uptake in normal areas of the heart [5]: very high uptake
uptake in the apex, the region in which the infarct is located [5]: much lower uptake
uptake pattern [5]: desirably selective uptake pattern
time in which myocardial activity approaches a constant level [6]: ≤ 3 min
myocardial activity for the remainder of the observation ([6]; serial images for 30 min): constant for the remainder of the observation
ECG [7]: No changes
blood pressure [7]: No changes
heart rate [7]: No changes
respiratory rate [7]: No changes
radioactivity in the myocardium over time [8]: remains constant throughout the experiment (60 minutes)
region of highest regional uptake in the myocardium [8]: left ventricle
wash-out from / retention in the myocardium [8]: much higher retention in the myocardium
